Measurements: ChEMBL document CHEMBL4507301 (2021)

Assays:
[1] = molecular target: NUAK family SNF1-like kinase 1 (Homo sapiens) (UniProt O60285); conditions: Compound concentration 1000.0 nM
[2] = molecular target: Serine/threonine-protein kinase 38-like (Homo sapiens) (UniProt Q9Y2H1); conditions: Compound concentration 1000.0 nM
[3] = molecular target: Aurora kinase B (Homo sapiens) (UniProt Q96GD4); conditions: Compound concentration 1000.0 nM
[4] = molecular target: Mitogen-activated protein kinase 11 (Homo sapiens) (UniProt Q15759); conditions: Compound concentration 1000.0 nM
[5] = system: Receptor-type tyrosine-protein kinase FLT3 (Homo sapiens), P36888 [K663Q]; conditions: Compound concentration 1000.0 nM
[6] = molecular target: Mitogen-activated protein kinase kinase kinase 20 (Homo sapiens) (UniProt Q9NYL2); conditions: Compound concentration 1000.0 nM
[7] = molecular target: Ephrin type-A receptor 8 (Homo sapiens) (UniProt P29322); conditions: Compound concentration 1000.0 nM
[8] = molecular target: Testis-specific serine/threonine-protein kinase 3 (Homo sapiens) (UniProt Q96PN8); conditions: Compound concentration 1000.0 nM
[9] = system: Tyrosine-protein kinase ABL1 (Homo sapiens), P00519 [T315I]; conditions: Compound concentration 1000.0 nM
[10] = molecular target: Bone morphogenetic protein receptor type-2 (Homo sapiens) (UniProt Q13873); conditions: Compound concentration 1000.0 nM
[11] = molecular target: NUAK family SNF1-like kinase 2 (Homo sapiens) (UniProt Q9H093); conditions: Compound concentration 1000.0 nM
Chain of NUAK family SNF1-like kinase 2 (Homo sapiens) (Q9H093 whole entry): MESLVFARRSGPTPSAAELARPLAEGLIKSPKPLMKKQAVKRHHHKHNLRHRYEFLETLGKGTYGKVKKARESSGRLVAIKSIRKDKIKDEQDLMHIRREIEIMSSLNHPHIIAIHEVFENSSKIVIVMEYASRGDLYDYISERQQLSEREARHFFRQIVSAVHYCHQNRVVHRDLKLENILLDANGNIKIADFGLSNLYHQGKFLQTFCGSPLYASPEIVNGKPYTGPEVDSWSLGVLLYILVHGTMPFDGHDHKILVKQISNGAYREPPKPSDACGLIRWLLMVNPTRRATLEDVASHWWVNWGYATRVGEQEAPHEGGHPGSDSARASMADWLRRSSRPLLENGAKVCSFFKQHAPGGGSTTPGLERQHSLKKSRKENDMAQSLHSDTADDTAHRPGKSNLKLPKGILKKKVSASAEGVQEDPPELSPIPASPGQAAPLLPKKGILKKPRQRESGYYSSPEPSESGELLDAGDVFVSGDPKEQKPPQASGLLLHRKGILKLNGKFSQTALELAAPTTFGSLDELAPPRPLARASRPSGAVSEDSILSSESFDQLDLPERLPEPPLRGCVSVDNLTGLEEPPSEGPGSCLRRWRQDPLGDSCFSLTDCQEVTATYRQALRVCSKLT

[12] = system: Mast/stem cell growth factor receptor Kit (Homo sapiens), P10721 [D816H]; conditions: Compound concentration 1000.0 nM
[13] = molecular target: 5-hydroxytryptamine receptor 2C (Homo sapiens) (UniProt P28335); conditions: Compound concentration 10.0 uM
Chain of 5-hydroxytryptamine receptor 2C (Homo sapiens) (P28335 whole entry): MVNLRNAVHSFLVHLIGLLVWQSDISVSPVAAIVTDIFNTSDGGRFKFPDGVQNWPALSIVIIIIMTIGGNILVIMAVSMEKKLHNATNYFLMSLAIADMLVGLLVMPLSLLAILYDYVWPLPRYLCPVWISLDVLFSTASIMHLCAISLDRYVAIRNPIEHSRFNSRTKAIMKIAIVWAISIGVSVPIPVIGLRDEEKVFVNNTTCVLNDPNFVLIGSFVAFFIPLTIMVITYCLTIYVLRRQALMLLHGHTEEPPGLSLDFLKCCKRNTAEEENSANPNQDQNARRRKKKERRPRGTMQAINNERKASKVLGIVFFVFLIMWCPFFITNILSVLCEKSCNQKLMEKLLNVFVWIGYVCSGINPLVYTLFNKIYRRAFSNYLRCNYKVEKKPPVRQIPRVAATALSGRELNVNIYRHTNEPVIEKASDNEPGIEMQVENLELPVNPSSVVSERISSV

[14] = molecular target: Mitogen-activated protein kinase kinase kinase 6 (Homo sapiens) (UniProt O95382); conditions: Compound concentration 1000.0 nM
[15] = molecular target: Serine/threonine-protein kinase pim-2 (Homo sapiens) (UniProt Q9P1W9); conditions: Compound concentration 1000.0 nM
[16] = molecular target: Platelet-derived growth factor receptor beta (Homo sapiens) (UniProt P09619); conditions: Compound concentration 1000.0 nM
Chain of Platelet-derived growth factor receptor beta (Homo sapiens) (P09619 whole entry): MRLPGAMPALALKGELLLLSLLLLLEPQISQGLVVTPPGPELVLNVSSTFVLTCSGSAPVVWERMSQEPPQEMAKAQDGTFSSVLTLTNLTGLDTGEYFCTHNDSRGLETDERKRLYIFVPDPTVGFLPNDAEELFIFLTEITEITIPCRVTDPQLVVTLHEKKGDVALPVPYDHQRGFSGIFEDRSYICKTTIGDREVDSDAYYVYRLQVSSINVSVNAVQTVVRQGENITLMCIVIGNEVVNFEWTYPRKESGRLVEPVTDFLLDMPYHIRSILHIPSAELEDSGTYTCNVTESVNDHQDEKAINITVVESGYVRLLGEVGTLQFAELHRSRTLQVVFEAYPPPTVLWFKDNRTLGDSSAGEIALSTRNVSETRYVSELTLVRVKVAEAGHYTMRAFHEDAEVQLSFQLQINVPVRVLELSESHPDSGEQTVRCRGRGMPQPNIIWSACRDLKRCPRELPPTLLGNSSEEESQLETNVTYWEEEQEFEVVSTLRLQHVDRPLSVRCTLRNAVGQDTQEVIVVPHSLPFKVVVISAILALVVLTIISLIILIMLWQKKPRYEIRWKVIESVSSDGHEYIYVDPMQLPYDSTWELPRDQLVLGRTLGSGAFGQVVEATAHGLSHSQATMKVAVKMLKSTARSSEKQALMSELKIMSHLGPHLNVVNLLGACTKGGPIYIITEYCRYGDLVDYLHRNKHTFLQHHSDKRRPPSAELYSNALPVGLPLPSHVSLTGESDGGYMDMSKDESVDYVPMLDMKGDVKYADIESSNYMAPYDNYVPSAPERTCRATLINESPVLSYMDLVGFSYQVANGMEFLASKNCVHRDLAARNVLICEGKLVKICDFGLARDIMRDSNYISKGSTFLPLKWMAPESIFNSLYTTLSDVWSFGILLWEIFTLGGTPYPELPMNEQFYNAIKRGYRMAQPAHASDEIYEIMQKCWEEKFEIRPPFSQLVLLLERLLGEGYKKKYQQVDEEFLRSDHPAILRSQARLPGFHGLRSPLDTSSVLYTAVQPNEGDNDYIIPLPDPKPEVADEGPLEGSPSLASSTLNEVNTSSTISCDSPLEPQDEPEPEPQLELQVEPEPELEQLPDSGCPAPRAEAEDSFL

[17] = molecular target: 5-hydroxytryptamine receptor 2A (Homo sapiens) (UniProt P28223); conditions: Compound concentration 10.0 uM
[18] = molecular target: Inhibitor of nuclear factor kappa-B kinase subunit beta (Homo sapiens) (UniProt O14920); conditions: Compound concentration 1000.0 nM
[19] = molecular target: Myosin-IIIb (Homo sapiens) (UniProt Q8WXR4); conditions: Compound concentration 1000.0 nM
[20] = molecular target: Calcium/calmodulin-dependent protein kinase type II subunit beta (Homo sapiens) (UniProt Q13554); conditions: Compound concentration 1000.0 nM
[21] = molecular target: D(3) dopamine receptor (Homo sapiens) (UniProt P35462); conditions: Compound concentration 10.0 uM
[22] = molecular target: Serine/threonine-protein kinase ULK1 (Homo sapiens) (UniProt O75385); conditions: Compound concentration 1000.0 nM
Chain of Serine/threonine-protein kinase ULK1 (Homo sapiens) (O75385 whole entry): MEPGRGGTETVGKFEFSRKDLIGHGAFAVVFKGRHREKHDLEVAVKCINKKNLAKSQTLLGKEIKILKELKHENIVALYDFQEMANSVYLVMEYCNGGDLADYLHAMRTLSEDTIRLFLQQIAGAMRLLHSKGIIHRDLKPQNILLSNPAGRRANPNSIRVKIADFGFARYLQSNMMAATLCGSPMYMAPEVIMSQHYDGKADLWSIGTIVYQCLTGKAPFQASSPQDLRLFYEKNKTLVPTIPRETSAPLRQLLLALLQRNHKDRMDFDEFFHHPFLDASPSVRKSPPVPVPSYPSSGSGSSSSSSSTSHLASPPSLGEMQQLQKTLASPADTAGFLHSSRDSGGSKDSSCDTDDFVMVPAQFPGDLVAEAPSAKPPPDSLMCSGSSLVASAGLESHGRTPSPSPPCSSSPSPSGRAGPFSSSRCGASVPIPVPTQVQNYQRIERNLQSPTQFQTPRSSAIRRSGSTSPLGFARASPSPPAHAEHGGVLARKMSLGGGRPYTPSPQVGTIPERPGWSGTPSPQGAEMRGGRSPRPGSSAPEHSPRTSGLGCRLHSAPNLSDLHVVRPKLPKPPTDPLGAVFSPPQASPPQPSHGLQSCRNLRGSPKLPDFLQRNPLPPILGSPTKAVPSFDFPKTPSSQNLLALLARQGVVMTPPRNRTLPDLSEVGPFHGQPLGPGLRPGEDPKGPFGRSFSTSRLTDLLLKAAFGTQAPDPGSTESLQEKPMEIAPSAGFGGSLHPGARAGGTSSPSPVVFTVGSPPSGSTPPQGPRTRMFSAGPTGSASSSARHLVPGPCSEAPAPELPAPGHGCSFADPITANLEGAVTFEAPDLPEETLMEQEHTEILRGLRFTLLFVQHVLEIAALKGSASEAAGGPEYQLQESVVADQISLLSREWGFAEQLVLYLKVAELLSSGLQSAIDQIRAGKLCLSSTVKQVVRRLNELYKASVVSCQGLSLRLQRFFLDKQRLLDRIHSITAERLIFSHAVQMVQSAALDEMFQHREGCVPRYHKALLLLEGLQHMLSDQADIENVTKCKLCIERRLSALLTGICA

[23] = molecular target: Aurora kinase A (Homo sapiens) (UniProt O14965); conditions: Compound concentration 1000.0 nM
Chain of Aurora kinase A (Homo sapiens) (O14965 whole entry): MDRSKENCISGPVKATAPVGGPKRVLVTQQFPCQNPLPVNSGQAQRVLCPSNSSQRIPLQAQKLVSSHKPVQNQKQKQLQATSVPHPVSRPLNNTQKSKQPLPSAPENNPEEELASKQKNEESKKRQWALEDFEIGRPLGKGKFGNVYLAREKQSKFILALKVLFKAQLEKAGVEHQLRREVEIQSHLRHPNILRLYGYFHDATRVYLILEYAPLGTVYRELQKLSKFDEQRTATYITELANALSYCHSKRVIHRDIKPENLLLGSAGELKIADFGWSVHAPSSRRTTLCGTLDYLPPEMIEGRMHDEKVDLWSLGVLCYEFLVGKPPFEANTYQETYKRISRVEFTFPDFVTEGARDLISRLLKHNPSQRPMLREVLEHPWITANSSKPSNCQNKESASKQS

[24] = molecular target: Vascular endothelial growth factor receptor 1 (Homo sapiens) (UniProt P17948); conditions: Compound concentration 1000.0 nM
[25] = molecular target: Serine/threonine-protein kinase N2 (Homo sapiens) (UniProt Q16513); conditions: Compound concentration 1000.0 nM
[26] = molecular target: Ribosomal protein S6 kinase alpha-6 (Homo sapiens) (UniProt Q9UK32); conditions: Compound concentration 1000.0 nM
[27] = molecular target: Serine/threonine-protein kinase 16 (Homo sapiens) (UniProt O75716); conditions: Compound concentration 1000.0 nM
[28] = molecular target: Uncharacterized serine/threonine-protein kinase SBK3 (Homo sapiens) (UniProt P0C264); conditions: Compound concentration 1000.0 nM
[29] = molecular target: MAP kinase-activated protein kinase 5 (Homo sapiens) (UniProt Q8IW41); conditions: Compound concentration 1000.0 nM
Chain of MAP kinase-activated protein kinase 5 (Homo sapiens) (Q8IW41 whole entry): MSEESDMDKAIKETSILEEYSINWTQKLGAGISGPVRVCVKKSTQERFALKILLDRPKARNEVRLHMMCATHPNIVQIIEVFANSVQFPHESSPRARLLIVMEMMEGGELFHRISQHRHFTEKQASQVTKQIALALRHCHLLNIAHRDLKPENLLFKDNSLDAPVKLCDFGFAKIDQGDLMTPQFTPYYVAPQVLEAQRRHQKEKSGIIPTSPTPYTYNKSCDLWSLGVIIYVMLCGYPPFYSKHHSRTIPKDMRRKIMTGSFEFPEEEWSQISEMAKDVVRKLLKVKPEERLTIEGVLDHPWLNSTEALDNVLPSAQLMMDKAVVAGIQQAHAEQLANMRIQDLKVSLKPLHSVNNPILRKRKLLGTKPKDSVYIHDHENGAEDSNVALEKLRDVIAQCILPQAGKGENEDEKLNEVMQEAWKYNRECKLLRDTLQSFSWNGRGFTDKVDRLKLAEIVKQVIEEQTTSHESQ

[30] = molecular target: Serine/threonine-protein kinase NIM1 (Homo sapiens) (UniProt Q8IY84); conditions: Compound concentration 1000.0 nM
[31] = system: Mast/stem cell growth factor receptor Kit (Homo sapiens), P10721 [V559D,T670I]; conditions: Compound concentration 1000.0 nM
[32] = molecular target: Serine/threonine-protein kinase PAK 1 (Homo sapiens) (UniProt Q13153); conditions: Compound concentration 1000.0 nM
[33] = molecular target: TGF-beta receptor type-1 (Homo sapiens) (UniProt P36897); conditions: Compound concentration 1000.0 nM
Chain of TGF-beta receptor type-1 (Homo sapiens) (P36897 whole entry): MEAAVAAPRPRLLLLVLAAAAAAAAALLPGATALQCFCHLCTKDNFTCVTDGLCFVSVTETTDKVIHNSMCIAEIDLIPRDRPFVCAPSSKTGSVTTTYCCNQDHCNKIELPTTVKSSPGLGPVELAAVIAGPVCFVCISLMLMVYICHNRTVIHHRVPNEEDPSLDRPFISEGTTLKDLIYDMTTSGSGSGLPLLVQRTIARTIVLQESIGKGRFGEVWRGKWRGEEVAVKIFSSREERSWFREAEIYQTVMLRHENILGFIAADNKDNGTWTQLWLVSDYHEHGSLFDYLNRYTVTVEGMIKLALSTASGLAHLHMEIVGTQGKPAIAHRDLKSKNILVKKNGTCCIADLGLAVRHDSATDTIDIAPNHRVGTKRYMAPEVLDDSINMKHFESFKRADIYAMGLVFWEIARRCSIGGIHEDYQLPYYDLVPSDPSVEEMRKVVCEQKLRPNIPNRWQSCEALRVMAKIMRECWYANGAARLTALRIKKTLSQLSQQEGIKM

[34] = molecular target: Calcium/calmodulin-dependent protein kinase type 1D (Homo sapiens) (UniProt Q8IU85); conditions: Compound concentration 1000.0 nM
[35] = molecular target: Mitogen-activated protein kinase kinase kinase kinase 5 (Homo sapiens) (UniProt Q9Y4K4); conditions: Compound concentration 1000.0 nM
[36] = molecular target: Beta-2 adrenergic receptor (Homo sapiens) (UniProt P07550); conditions: Compound concentration 10.0 uM
[37] = system: Epidermal growth factor receptor (Homo sapiens), P00533 [T790M]; conditions: Compound concentration 1000.0 nM
[38] = molecular target: Epidermal growth factor receptor (Homo sapiens) (UniProt P00533); conditions: Compound concentration 1000.0 nM
[39] = molecular target: Phosphatidylinositol 5-phosphate 4-kinase type-2 beta (Homo sapiens) (UniProt P78356); conditions: Compound concentration 1000.0 nM
[40] = molecular target: Serine/threonine-protein kinase WNK4 (Homo sapiens) (UniProt Q96J92); conditions: Compound concentration 1000.0 nM
[41] = molecular target: Serine/threonine-protein kinase Nek1 (Homo sapiens) (UniProt Q96PY6); conditions: Compound concentration 1000.0 nM
[42] = molecular target: Death-associated protein kinase 3 (Homo sapiens) (UniProt O43293); conditions: Compound concentration 1000.0 nM
[43] = molecular target: Casein kinase II subunit alpha' (Homo sapiens) (UniProt P19784); conditions: Compound concentration 1000.0 nM
[44] = molecular target: Platelet-derived growth factor receptor alpha (Homo sapiens) (UniProt P16234); conditions: Compound concentration 1000.0 nM
[45] = molecular target: Tyrosine-protein kinase Fyn (Homo sapiens) (UniProt P06241); conditions: Compound concentration 1000.0 nM

Chain of Aurora kinase B (Homo sapiens) (Q96GD4 whole entry): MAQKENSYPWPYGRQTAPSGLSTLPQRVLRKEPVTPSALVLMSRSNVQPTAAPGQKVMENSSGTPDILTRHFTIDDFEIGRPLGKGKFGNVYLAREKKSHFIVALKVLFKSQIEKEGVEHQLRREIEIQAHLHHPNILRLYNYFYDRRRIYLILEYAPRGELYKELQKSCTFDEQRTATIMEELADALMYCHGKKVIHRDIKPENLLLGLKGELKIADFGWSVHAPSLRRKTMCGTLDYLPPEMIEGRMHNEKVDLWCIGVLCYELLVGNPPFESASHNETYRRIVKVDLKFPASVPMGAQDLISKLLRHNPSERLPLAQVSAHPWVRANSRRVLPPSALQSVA

## C[C@@H](c1cccc(C#N)c1)n1cc(Cl)cc(C(N)=O)c1=N [(S)-9s]
[1]
  residual activity: 89%
[2]
  residual activity: 85%
[3]
  residual activity: 100%
[4]
  residual activity: 93%
[5]
  residual activity: 92%
[6]
  residual activity: 71%
[7]
  residual activity: 90%
[8]
  residual activity: 100%
[9]
  residual activity: 85%
[10]
  residual activity: 100%
[11]
  residual activity: 86%
[12]
  residual activity: 100%
[13]
  inhibition: 16.8%
[14]
  residual activity: 79%
[15]
  residual activity: 100%
[16]
  residual activity: 84%
[17]
  inhibition: 5.24%
[18]
  residual activity: 100%
[19]
  residual activity: 100%
[20]
  residual activity: 100%
[21]
  inhibition: -3.38%
[22]
  residual activity: 72%
[23]
  residual activity: 96%
[24]
  residual activity: 100%
[25]
  residual activity: 100%
[26]
  residual activity: 100%
[27]
  residual activity: 85%
[28]
  residual activity: 95%
[29]
  residual activity: 93%
[30]
  residual activity: 97%
[31]
  residual activity: 100%
[32]
  residual activity: 100%
[33]
  residual activity: 81%
[34]
  residual activity: 98%
[35]
  residual activity: 96%
[36]
  inhibition: 13.8%
[37]
  residual activity: 93%
[38]
  residual activity: 100%
[39]
  residual activity: 73%
[40]
  residual activity: 98%
[41]
  residual activity: 100%
[42]
  residual activity: 100%
[43]
  residual activity: 100%
[44]
  residual activity: 100%
[45]
  residual activity: 65%

## C[C@H](c1cccc(C#N)c1)n1cc(Cl)cc(C(N)=O)c1=N [(R)-9s]
[1]
  residual activity: 57%
[2]
  residual activity: 68%
[3]
  residual activity: 100%
[4]
  residual activity: 100%
[5]
  residual activity: 100%
[6]
  residual activity: 86%
[7]
  residual activity: 95%
[8]
  residual activity: 100%
[9]
  residual activity: 92%
[10]
  residual activity: 97%
[11]
  residual activity: 91%
[12]
  residual activity: 79%
[13]
  inhibition: 9.56%
[14]
  residual activity: 91%
[15]
  residual activity: 100%
[16]
  residual activity: 83%
[17]
  inhibition: 12.3%
[18]
  residual activity: 100%
[19]
  residual activity: 92%
[20]
  residual activity: 100%
[21]
  inhibition: 7.03%
[22]
  residual activity: 78%
[23]
  residual activity: 97%
[24]
  residual activity: 100%
[25]
  residual activity: 100%
[26]
  residual activity: 100%
[27]
  residual activity: 100%
[28]
  residual activity: 95%
[29]
  residual activity: 84%
[30]
  residual activity: 84%
[31]
  residual activity: 100%
[32]
  residual activity: 100%
[33]
  residual activity: 100%
[34]
  residual activity: 97%
[35]
  residual activity: 100%
[36]
  inhibition: 18.6%
[37]
  residual activity: 80%
[38]
  residual activity: 100%
[39]
  residual activity: 52%
[40]
  residual activity: 97%
[41]
  residual activity: 100%
[42]
  residual activity: 100%
[43]
  residual activity: 100%
[44]
  residual activity: 94%
[45]
  residual activity: 42%
